Series [1] concerns the target GABAB receptor sites (Homo sapiens, UniProt Q9UBS5). Briefly: affinity towards GABAB receptor sites. Type of series: binding.
In series [2] the test system is phenylquinone writhing in mice. As to the kind of experiment: analgesic activity, phenylquinone writhing in mice. The class given is in vivo. The conditions noted are these: Mus musculus, po. (In writhing tests, fewer writhes than in controls are read as antinociception.)
Series [3] can be described thus: lethality at high dose. Type of series: in vivo. To be noted: dose of 200 mg/kg i.p.
The subject of series [4] is audiogenic seizures in DBA/2 mice. As to the kind of experiment: anticonvulsant activity, audiogenic seizures in DBA/2 mice. Type of series: in vivo. The conditions noted are these: Mus musculus, ip, read-out: ID50-value, anticonvulsant (audiogenic seizures in DBA/2 mice).
Series [5] relates to rotarod mice. Briefly: muscle relaxant activity, rotarod mice. The conditions noted are these: Mus musculus, ip, read-out: ID50-value, muscle relaxant (rotarod mice). The class given is in vivo. (In general: In the rotarod test animals must keep their balance on a rotating rod.)

Chain of GABAB receptor sites (Q9UBS5 15-961 limits assumed): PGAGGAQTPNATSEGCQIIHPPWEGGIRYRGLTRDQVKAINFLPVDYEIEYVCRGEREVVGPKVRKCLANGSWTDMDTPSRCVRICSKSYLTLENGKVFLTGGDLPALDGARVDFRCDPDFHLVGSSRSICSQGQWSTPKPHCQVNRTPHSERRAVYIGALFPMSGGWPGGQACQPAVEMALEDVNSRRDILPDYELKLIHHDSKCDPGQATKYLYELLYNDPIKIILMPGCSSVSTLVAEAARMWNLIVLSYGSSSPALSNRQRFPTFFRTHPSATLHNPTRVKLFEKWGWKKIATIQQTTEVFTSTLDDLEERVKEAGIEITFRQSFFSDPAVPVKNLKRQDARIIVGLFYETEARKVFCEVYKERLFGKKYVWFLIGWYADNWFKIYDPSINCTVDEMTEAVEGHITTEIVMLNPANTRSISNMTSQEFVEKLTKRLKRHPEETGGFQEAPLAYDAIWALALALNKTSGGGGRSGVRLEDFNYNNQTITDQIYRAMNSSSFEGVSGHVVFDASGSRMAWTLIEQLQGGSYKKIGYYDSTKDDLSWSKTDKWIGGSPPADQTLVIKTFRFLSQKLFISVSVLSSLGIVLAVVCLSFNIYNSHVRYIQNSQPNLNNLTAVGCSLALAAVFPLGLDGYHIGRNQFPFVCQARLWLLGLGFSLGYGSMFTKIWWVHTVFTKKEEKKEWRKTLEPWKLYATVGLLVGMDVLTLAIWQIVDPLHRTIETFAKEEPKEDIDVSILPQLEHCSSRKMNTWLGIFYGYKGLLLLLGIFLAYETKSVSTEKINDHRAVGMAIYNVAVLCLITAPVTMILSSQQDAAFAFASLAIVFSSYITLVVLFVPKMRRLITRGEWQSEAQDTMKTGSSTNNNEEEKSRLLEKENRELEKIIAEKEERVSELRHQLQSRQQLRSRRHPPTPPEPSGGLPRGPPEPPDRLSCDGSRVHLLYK
Chain of GABAB receptor sites (O75899 42-941 partner): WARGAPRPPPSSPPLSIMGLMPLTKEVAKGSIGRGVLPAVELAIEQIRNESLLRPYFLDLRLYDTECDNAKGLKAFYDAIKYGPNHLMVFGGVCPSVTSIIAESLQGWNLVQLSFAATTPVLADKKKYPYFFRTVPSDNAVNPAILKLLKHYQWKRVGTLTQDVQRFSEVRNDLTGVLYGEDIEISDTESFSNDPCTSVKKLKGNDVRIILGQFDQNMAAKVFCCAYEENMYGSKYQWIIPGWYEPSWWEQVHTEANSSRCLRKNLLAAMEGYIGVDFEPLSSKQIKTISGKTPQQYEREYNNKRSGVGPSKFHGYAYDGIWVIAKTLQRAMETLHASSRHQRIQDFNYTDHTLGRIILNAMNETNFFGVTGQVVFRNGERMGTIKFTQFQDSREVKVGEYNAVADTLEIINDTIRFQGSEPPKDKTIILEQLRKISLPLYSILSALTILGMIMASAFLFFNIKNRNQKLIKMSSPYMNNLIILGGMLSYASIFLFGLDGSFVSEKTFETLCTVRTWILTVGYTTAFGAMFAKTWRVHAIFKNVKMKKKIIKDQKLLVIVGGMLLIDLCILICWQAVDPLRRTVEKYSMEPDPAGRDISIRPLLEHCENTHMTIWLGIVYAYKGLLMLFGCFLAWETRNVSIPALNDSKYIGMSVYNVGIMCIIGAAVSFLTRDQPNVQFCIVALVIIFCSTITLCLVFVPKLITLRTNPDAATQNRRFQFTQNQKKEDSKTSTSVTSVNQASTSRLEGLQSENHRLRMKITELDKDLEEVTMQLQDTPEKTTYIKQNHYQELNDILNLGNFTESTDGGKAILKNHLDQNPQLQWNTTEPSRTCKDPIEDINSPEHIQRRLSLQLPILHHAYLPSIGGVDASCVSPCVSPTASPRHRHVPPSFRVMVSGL

Consider `NCCCP(O)O` [Example 1, 3-aminopropylphosphonous acid], for which the “activity relative to baclofen (times more pronounced)” value in series [1] (compared with baclofen) was “at least 20 times”.

Broadly, the IC50 is the concentration that inhibits the measured activity by half. In the case of `NCC(CP(O)O)c1ccc(Cl)cc1` (stereo not drawn) [Example 8, 3-amino-2-(4-chlorophenyl)propylphosphonous acid], the values for the ED50 in series [2], in series [4] and in series [5] were 4 mg/kg, 6 mg/kg and 6 to 9 mg/kg, respectively. Besides, the deaths result in series [3] was “no deaths were observed”. Also, the IC50 in series [1] (read-out: IC50-value at the GABAB receptor site) amounted to 35 nM.

(Values after US5457095A, “Substituted propane-phosponous acid compounds” (Ciba-Geigy Corporation, priority 1984, dated 1995).)
